Source: US5776739A, “Process for producing disaccharides and novel disaccharides” (Kyowa Hakko Kogyo Co., Ltd., priority 1919, dated 1998)

What was measured:
[1] = tested on: alkaline phosphatase; assay: Residual alkaline phosphatase activity after storage as dried powder (Test Example 4); format: biochemical, calf; conditions: sugar 50 mM; dry powder stored at 50° C. for 24 hours
Description: (§1) Each of the sample solutions (10 μl) was incubated at 37° C. in 2.0 ml of the reaction mixture consisting of 1M diethanol-amine buffer (pH 10.2), 0.2 mM magnesium chloride and 5 mM p-nitrophenyl phosphoric acid. Then, the enzyme activity was determined by the amount of p-nitrophenol produced therein, which was culculated on the basis of change in absorbance at 405 nm. The activity of each of the sample solutions immediately after the preparation was defined as 100%, and the residual activity in the stored sample solution was calculated.
(§2) A sample solution (unsupplemented) was prepared by diluting alkaline phosphatase with distilled water. Other sample solutions were prepared by adding, to the above solution, trehalose, maltose, glucosyl (α, 1-1)D-fucose or glucosyl (α, 1-4)L-fucose to the concentration of 50 mM. Each of the sample solutions was evaporated at room temperature to dryness using a vacuum pump to obtain dry powder, and the dry powder was stored at 50° C. for 24 hours. The activity of alkaline phosphatase in each of the sample solutions was determined in a manner similar to that employed in Test Example 1. The activity of each of the sample solutions immediately after preparation was defined as 100%, and the residual activity in the stored sample solution was calculated.

[2] = tested on: alkaline phosphatase; assay: Residual alkaline phosphatase activity after repeated freezing and thawing (Test Example 3); format: biochemical, calf; conditions: sugar 50 mM; frozen (dry ice/ethanol) and thawed 10 times
Description: as §1
as §2, with “frozen by dry ice/ethanol and thawed” for “evaporated”, “repeatedly 10 times in total.” for “to dryness using a vacuum pump to obtain dry powder, and the dry powder was stored at 50° C. for 24 hours.”, “after the” for “after”, “frozen and thawed” for “stored”

[3] = tested on: alkaline phosphatase; assay: Residual alkaline phosphatase activity after storage in frozen form (Test Example 2); format: biochemical, calf; conditions: sugar 50 mM; stored frozen at -20° C. for 6 days
Description: as §1
as §2, with “The” for “Each of the”, “were stored in frozen form at -20° C. for 6 days. After thawing” for “was evaporated”, “temperature,” for “temperature to dryness using a vacuum pump to obtain dry powder, and”, “the” for “the dry powder was stored at 50° C. for 24 hours. The”

[4] = tested on: alkaline phosphatase; assay: Residual alkaline phosphatase activity after storage as solution at room temperature (Test Example 1); format: biochemical, calf; conditions: for effective as a stabilizer for alkaline phosphatase: overall conclusion from Test Examples 1-4; for Residual activity: sugar 50 mM, solution, room temperature (25° C.), 24 hours
Description: A sample solution (unsupplemented) was prepared by diluting alkaline phosphatase (derived from calf small intestine, Boehringer Mannheim Biochemica) with distilled water. Other sample solutions were prepared by adding, to the above solution, trehalose, maltose, glucosyl (α, 1-1)D-fucose or glucosyl (α, 1-4)L-fucose to the concentration of 50 mM. The sample solutions were allowed to stand at room temperature (25° C.) for 24 hours, and the activity of alkaline phosphatase in each of the sample solutions was determined.
The activity of alkaline phosphatase was determined as follows.
as §1

[5] = C. Colaco et al., Bio/Technology, 10, 1007-1011 (1992); cited from earlier work

Structure (SMILES)	Residual activity [1]	Residual activity [2]	Residual activity [3]	effective as a stabilizer for alkaline phosphatase [4]	Residual activity [4]	enhance the stability of biopolymers such as enzyme proteins [5]
C[C@@H]1OC(O)[C@@H](O)[C@H](O)[C@@H]1O[C@H]1O[C@H](CO)[C@@H](O)[C@H](O)[C@H]1O (stereo partly drawn) [Glucosyl (α, 1-4) L-fucose, glucosyl (α, 1-4)L-fucose]	83.0%	106.0%	76.0%	effective as a stabilizer for alkaline phosphatase	93.7%	
C[C@H]1O[C@H](O[C@H]2O[C@H](CO)[C@@H](O)[C@H](O)[C@H]2O)[C@H](O)[C@@H](O)[C@H]1O [Glucosyl (α, 1-1) D-fucose, glucosyl (α, 1-1)D-fucose]	62.5%	65.0%	36.3%	effective as a stabilizer for alkaline phosphatase	21.8%	
OC[C@H]1O[C@H](O[C@H]2O[C@H](CO)[C@@H](O)[C@H](O)[C@H]2O)[C@H](O)[C@@H](O)[C@@H]1O [Trehalose, glucosyl(α,1-1)D-glucose]	55.0%	21.6%	26.4%	effective as a stabilizer for alkaline phosphatase	9.4%	enhance the stability of biopolymers such as enzyme proteins
OC[C@H]1O[C@H](O[C@H]2[C@H](O)[C@@H](O)[C@H](O)O[C@@H]2CO)[C@H](O)[C@@H](O)[C@@H]1O [Maltose, glucosyl(α,1-4)D-glucose]	41.0%	16.3%	20.0%	effective as a stabilizer for alkaline phosphatase	3.3%	
